Assay results published in paper PMC6099110, “Valepotriates From the Roots and Rhizomes of Valeriana jatamansi Jones as Novel N-Type Calcium Channel Antagonists” (Frontiers in Pharmacology, 2018).

System: T1, Cav2.2 N-type voltage-gated calcium channel
T1 construct: gene CACNA1B
Experiment: two-electrode voltage clamp of Cav2.[…] expressed in Xenopus oocytes, dose-response
Type: cell-based

SMILES	EC50
CC(=O)OCC1=CO[C@@H](OC(=O)CC(C)C)[C@H]2C1=C[C@H](OC(=O)CC(C)C)[C@]2(O)COC(=O)C(OC(=O)CC(C)C)C(C)C (stereo partly drawn) [compound 1, (1S, 7S, 8R, 9S)-11-acetoxy-10-[a-(isovaleroxy)isovaleroxy]-1,7-diisovaleroxyvaltrate hydrin]	3.3 µM
CC(=O)OCC1=CO[C@@H](OC(=O)CC(C)(C)OC(C)=O)[C@H]2C1=C[C@H](OC(=O)CC(C)C)[C@]2(O)COC(=O)CC(C)C [compound 3, valtrate hydrin B8]	4.8 µM
